# Measurements taken from patent publication US8741934B2, “Inhibitors of ion channels” (Pfizer Limited, priority 2007, dated 2014).
# Columns and labels:
# hSCN3A sodium channels = target: T1, hSCN3A sodium channels (Homo sapiens, UniProt Q9NY46); experiment: hSCN3A electrophysiology, whole-cell patch-clamp or PatchXpress 7000, estimated IC-50 (Table B); assay type: cell-based; details: estimated IC-50; hSCN3A cells, whole-cell patch-clamp or PatchXpress 7000; read-out: SCN3A EIC-50
# T1 construct: expressed in transfected cells
# Procedure, shortened: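 A 20 msec test pulse to 0 mV followed an 8 sec conditioning prepulse at each cell's measured V1/2. Room-temperature (22-24° C) recordings on HEK cells stably expressing the channel, conventional or PatchXpress.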
# [1] = assay type: in vivo, rat; details: in contrast to compounds I, II and III
# Procedure: The bioanalysis of plasma samples from rats dosed with LC/MS/MS detection of sulfathiazole as measured against an internal standard. Extraction was performed on-line with a turbulent flow chromatography system (HTLC). The transfer from the HTLC to the analytical HPLC is automatic. The mass spectrometer was operated in API ionization mode with an electrospray interface between the analytical HPLC and the mass spectrometer. Multiple reaction monitoring (mrm) detection was used for each analyte on a triple quadrupole mass spectrometer.
# 2. Materials • HPLC grade reagents were used such as: • Water (Hydro Services Picosystem water filtration) • Methanol (Fisher Ultima) • Ammonium formate (Sigma), and • Formic acid (Sigma) • Rat plasma • sulfathiazole • internal standard B. Instrument Conditions • Mass spectrometer: • Positive ion, mrm detection at • m/z 256 to m/z 108 for ICA-000024 • m/z 342 to m/z 218 for ICA-18756 (internal standard) • 100 ms Dwell time • Cone voltage, capillary voltage and collision energy were optimized for each compound • Source Temperature: 125 C, Desolvation temperature: 325 C • Cone gas at 73 L/hr, and Desolvation gas at 740 L/hr C. Chromatography Conditions
# 1. Mobile Phases: • A: 98% water:2% methanol with • 4 mM ammonium formate, 0.1% formic acid • B: 98% methanol:2% water with • 4 mM ammonium formate, 0.1% formic acid
# 2. HTLC Turbulent Flow Quaternary Pump • Column: Cohesive Cyclone Turbo-Flow • Timetable:
# 3. Analytical Binary Pump • Column: Phenomenex Synergi Hydro-RP 4u 50 mm×2.1 mm • Timetable:
# 4. Injection Volume • 20 μL D. Preparation of Standards and Samples
# Plasma standards and samples were prepared for injection according to the standard operating procedure, HTLC Plasma Analysis by LC/MS/MS.
# Nav1.3 = Nav1.3 (Homo sapiens, UniProt Q9NY46); details: read-out: TTX IC-50; cited from earlier work
# Nav1.6 = Nav1.6 (Homo sapiens, UniProt Q9UQD0); details: read-out: TTX IC-50; cited from earlier work
# Nav1.8 = Nav1.8 (Homo sapiens, UniProt Q9Y5Y9); details: read-out: TTX IC-50; cited from earlier work
# Nav1.9 = Nav1.9 (Homo sapiens, UniProt Q9UI33); details: read-out: TTX IC-50; cited from earlier work
# Nav1.1 = Nav1.1 (Homo sapiens, UniProt P35498); details: read-out: TTX IC-50; cited from earlier work
# Nav1.2 = Nav1.2 (Homo sapiens, UniProt Q99250); details: read-out: TTX IC-50; cited from earlier work
# T1 sequence (Q9NY46 whole entry): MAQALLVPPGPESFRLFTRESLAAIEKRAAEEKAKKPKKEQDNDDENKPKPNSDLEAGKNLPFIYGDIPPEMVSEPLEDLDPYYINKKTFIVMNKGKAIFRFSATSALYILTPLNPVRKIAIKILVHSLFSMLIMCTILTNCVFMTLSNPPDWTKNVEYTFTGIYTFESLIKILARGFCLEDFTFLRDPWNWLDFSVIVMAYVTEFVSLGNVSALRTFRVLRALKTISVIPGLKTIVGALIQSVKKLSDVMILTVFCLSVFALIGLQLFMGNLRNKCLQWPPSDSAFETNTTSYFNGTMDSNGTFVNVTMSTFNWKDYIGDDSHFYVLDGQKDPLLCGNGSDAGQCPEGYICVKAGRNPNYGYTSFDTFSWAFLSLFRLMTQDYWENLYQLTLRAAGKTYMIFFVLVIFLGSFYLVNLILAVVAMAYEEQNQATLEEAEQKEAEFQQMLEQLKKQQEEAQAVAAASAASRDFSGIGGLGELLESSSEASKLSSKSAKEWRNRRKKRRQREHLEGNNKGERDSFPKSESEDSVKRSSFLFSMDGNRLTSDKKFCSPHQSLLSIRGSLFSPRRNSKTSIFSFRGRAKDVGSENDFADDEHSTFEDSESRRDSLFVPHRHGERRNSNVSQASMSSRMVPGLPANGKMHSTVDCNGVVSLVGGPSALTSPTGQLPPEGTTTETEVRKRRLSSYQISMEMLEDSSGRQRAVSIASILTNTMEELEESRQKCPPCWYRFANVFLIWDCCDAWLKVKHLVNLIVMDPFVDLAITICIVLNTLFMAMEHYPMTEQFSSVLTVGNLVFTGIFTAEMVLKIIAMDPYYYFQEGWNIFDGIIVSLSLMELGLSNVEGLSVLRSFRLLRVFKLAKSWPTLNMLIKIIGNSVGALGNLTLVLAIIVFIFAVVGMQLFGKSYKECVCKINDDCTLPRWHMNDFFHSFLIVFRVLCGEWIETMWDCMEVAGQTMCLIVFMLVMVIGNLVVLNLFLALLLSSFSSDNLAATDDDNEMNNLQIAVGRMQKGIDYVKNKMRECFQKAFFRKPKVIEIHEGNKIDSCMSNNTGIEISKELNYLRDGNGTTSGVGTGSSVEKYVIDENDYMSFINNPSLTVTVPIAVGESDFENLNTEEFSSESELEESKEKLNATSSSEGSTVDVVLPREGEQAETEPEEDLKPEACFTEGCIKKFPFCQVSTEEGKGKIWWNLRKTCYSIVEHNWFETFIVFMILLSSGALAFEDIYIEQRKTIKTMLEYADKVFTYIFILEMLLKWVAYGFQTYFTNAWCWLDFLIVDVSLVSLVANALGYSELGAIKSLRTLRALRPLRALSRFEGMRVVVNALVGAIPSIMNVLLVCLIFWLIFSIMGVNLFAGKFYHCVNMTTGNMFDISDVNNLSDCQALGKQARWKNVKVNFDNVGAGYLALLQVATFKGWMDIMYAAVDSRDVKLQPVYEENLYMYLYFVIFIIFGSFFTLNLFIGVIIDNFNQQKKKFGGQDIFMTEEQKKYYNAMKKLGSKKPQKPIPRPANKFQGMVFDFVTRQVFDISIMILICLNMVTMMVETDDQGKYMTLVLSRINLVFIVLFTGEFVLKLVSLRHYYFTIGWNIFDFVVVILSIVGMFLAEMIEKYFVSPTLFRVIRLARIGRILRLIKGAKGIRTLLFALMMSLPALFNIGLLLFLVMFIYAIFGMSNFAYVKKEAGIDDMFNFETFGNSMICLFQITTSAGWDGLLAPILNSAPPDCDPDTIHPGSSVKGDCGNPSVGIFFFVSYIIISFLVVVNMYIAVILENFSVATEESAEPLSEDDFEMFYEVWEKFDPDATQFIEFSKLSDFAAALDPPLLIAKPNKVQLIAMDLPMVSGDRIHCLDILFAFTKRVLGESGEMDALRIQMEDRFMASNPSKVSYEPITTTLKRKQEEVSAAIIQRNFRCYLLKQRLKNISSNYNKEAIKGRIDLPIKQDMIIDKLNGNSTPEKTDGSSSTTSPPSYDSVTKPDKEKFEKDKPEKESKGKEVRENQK
# Chain of Nav1.6 (Q9UQD0 whole entry, looked up): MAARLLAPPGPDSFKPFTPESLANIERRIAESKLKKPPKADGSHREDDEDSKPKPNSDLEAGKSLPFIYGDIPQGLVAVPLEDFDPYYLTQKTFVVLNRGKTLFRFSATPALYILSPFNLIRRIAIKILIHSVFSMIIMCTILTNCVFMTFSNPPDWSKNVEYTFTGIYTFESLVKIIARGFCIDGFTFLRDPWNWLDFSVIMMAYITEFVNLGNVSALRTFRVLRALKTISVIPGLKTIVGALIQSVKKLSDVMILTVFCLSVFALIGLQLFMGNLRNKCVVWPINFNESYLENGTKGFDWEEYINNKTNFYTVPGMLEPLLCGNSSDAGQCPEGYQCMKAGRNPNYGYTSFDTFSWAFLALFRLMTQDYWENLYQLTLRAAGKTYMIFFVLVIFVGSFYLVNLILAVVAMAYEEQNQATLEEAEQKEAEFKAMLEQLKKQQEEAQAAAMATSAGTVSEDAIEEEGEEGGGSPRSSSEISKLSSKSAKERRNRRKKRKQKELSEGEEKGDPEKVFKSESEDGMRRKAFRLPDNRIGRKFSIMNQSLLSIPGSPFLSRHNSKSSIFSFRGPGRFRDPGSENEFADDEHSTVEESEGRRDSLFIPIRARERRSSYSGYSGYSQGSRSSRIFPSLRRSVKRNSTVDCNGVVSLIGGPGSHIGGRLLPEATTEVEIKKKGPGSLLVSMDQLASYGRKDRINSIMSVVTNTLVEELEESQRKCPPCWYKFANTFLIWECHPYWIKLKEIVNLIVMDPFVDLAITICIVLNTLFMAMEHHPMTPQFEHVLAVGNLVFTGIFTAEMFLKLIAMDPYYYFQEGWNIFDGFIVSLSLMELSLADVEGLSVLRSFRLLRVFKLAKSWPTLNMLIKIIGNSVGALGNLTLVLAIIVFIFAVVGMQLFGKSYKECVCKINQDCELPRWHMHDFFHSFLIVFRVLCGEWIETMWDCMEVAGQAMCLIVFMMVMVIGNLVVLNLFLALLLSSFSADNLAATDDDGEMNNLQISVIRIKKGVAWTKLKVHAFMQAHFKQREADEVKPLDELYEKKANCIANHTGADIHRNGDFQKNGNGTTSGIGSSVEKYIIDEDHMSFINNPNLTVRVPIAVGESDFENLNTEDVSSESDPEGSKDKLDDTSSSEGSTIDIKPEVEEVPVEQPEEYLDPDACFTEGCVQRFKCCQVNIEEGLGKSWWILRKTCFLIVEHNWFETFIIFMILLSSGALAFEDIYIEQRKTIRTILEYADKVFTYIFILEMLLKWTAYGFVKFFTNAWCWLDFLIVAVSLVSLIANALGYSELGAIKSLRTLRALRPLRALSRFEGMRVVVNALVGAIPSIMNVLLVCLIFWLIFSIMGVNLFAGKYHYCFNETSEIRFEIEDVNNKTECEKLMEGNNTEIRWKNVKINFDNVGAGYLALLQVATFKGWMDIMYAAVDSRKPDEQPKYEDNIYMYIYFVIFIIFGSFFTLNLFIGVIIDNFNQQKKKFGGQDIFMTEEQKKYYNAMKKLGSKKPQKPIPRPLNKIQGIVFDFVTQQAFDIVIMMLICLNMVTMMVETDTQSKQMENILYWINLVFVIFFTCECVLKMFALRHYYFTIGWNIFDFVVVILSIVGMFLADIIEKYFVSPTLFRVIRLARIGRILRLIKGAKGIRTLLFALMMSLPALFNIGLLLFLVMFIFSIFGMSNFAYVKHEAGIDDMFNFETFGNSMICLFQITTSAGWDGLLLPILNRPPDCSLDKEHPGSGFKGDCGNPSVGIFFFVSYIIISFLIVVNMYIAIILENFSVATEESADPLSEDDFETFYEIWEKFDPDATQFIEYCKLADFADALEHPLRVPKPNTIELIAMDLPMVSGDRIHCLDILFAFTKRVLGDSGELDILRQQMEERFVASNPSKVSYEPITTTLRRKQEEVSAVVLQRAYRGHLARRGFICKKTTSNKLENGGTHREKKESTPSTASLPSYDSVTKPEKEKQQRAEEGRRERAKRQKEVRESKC
# Chain of Nav1.3 (Q9NY46 whole entry, looked up): as the sequence (Q9NY46 whole entry) above
Compound,IC50 (hSCN3A sodium channels) [nM],other results
"O=C(NCCOc1ccc(Cl)cc1)c1ccc(S(=O)(=O)Nc2nccs2)cc1 [Example 186, N-[2-(4-chlorophenoxy)ethyl]-4-[(1,3-thiazol-2-ylamino)sulfonyl]benzamide]",420,metabolism to the aniline containing sulfathiazole [1]: do not metabolize to form the aniline containing sulfathiazole
"CC(C)(C)CCNC(=O)c1ccc(S(=O)(=O)Nc2nccs2)cc1 [Example 418, N-(3,3-dimethylbutyl)-4-[(1,3-thiazol-2-ylamino)sulfonyl]benzamide]",2740,metabolism to the aniline containing sulfathiazole [1]: do not metabolize to form the aniline containing sulfathiazole
"O=C(NCc1ccc(Cl)cc1)c1ccc(S(=O)(=O)Nc2nccs2)cc1 [Example 100, N-(4-chlorobenzyl)-4-[(1,3-thiazol-2-ylamino)sulfonyl]benzamide]",430,metabolism to the aniline containing sulfathiazole [1]: do not metabolize to form the aniline containing sulfathiazole
"NC1=N[C@H](O)[C@H]2[C@H]3O[C@]4(O)O[C@@H]([C@@H](O)[C@@]2(N1)[C@@H]4O)[C@]3(O)CO [TTX, tetrodotoxin]",–,IC50 (Nav1.3): 15 nM; IC50 (Nav1.6): 6 nM; IC50 (Nav1.8): 50000 nM; IC50 (Nav1.9): 1000 nM; IC50 (Nav1.1): 10 nM; IC50 (Nav1.2): 10 nM
"O=C(NCc1ccc(OC(F)(F)F)cc1)c1ccc(S(=O)(=O)Nc2ncc(Cl)s2)c(Cl)c1 [Example 362, 3-Chloro-4-{[(5-chloro-1,3-thiazol-2-yl)amino]sulfonyl}-N-[4-(trifluoromethoxy)benzyl]benzamide]",1090,–
"O=C(NCc1ccc(F)c(OC(F)(F)F)c1)c1ccc(S(=O)(=O)Nc2ncc(Cl)s2)cc1F [Example 358, 4-{[(5-Chloro-1,3-thiazol-2-yl)amino]sulfonyl}-2-fluoro-N-[4-fluoro-3-(trifluoromethoxy)benzyl]benzamide]",370,–
"O=C(NCc1ccc(C(F)(F)F)cc1)c1ccc(S(=O)(=O)Nc2nccs2)nc1 [Example 417, 6-[(1,3-Thiazol-2-ylamino)sulfonyl]-N-[4-(trifluoromethyl)benzyl]nicotinamide]",210,–
"O=C(NCc1ccc(C(F)(F)F)c(F)c1)c1ccc(S(=O)(=O)Nc2ncc(Cl)s2)c(Cl)c1 [Example 366, 3-Chloro-4-{[(5-chloro-1,3-thiazol-2-yl)amino]sulfonyl}-N-[3-fluoro-4-(trifluoromethyl)benzyl] benzamide]",730,–
"O=C(NCc1ccc(Cl)c(F)c1)c1ccc(S(=O)(=O)Nc2nccs2)c(Cl)c1 [Example 292, 3-Chloro-N-(4-chloro-3-fluorobenzyl)-4-[(1,3-thiazol-2-yl-amino)sulfonyl]benzamide]",900,–
"O=C(NCCNc1ccc(Cl)cc1)c1ccc(S(=O)(=O)Nc2nccs2)cc1 [Example 385, N-{2-[(4-chlorophenyl)amino]ethyl}-4-[(1,3-thiazol-2-ylamino)sulfonyl]benzamide]",780,–
"O=C(NCc1ccc(Cl)c(C(F)(F)F)c1)c1ccc(S(=O)(=O)Nc2nccs2)cc1 [Example 395, N-[4-chloro-3-(trifluoromethyl)benzyl]-4-[(1,3-thiazol-2-ylamino)sulfonyl]benzamide]",30,–
"COc1cccc(CC2CCCN(C(=O)c3ccc(S(=O)(=O)Nc4nccs4)cc3)C2)c1 (stereo not shown) [Example 263, 4-{[3-(3-Methoxybenzyl)piperidin-1-yl]carbonyl}-N-1,3-thiazol-2-yl-benzenesulfonamide]",1130,–
"Cc1ncc(NS(=O)(=O)c2ccc(C(=O)NCc3ccc(C(F)(F)F)cc3)cc2)s1 [Example 16, 4-{[(2-Methyl-1,3-thiazol-5-yl)amino]sulfonyl}-N-[4-(trifluoromethyl)benzyl]benzamide]",> 10000,–
"N#Cc1ccc(CNC(=O)c2ccc(S(=O)(=O)Nc3nccs3)cc2)cc1 [Example 416, N-(4-cyanobenzyl)-4-[(1,3-thiazol-2-ylamino)sulfonyl] benzamide]",860,–
